Holding throughout (assay type): in vivo
One assay has as its system Plasmopara viticola. The assay is described as follows: Plasmopara viticola / grape / preventative (grape downy mildew). Conditions: grape seedlings cv. Gutedel, inoculated one day after application, vs untreated control, read-out: disease control. On the procedure:
Plasmopara viticola/Grape/Preventative (Grape Downy Mildew)
5-week old grape seedlings cv. Gutedel are treated with the formulated test compound in a spray chamber. The test plants are inoculated by spraying a sporangia suspension on their lower leaf surface one day after application. The inoculated test plants are incubated at 22° C. and 100% rh in a greenhouse and the percentage leaf area covered by disease is assessed when an appropriate level of disease appears on untreated check plants (6-8 days after application).

For another assay, the system named is Alternaria solani. The assay is described as follows: Alternaria solani / tomato / preventative (Alternaria on tomato). As to conditions: tomato plants cv. Roter Gnom, inoculated two days after application, vs untreated control, read-out: disease control. How it is done:
Alternaria solani/Tomato/Preventative (Alternaria on Tomato) 4-week old tomato plants cv. Roter Gnom are treated with the formulated test compound in a spray chamber. The test plants are inoculated by spraying them with a spore suspension two days after application. The inoculated test plants are incubated at 22/18° C. (day/night) and 95% rh in a greenhouse and the percentage leaf area covered by disease is assessed when an appropriate level of disease appears on untreated check plants (5-7 days after application).

For assay [1], the system named is Phaeosphaeria nodorum (Septoria nodorum). Briefly: Phaeosphaeria nodorum (Septoria nodorum) / wheat / leaf disc preventative (glume blotch). Conditions: Parastagonospora nodorum, foliar, wheat leaf segments cv. Kanzler on agar, inoculated 2 days after application, vs untreated control, read-out: disease control. On the procedure:
Phaeosphaeria nodorum (Septoria nodorum)/Wheat/Leaf Disc Preventative (Glume Blotch) Wheat leaf segments cv. Kanzler are placed on agar in a multiwell plate (24-well format) and sprayed with the formulated test compound diluted in water. The leaf disks are inoculated with a spore suspension of the fungus 2 days after application. The inoculated test leaf disks are incubated at 20° C. and 75% rh under a light regime of 12 h light/12 h darkness in a climate cabinet and the activity of a compound is assessed as percent disease control compared to untreated when an appropriate level of disease damage appears in untreated check leaf disks (5-7 days after application).

Each structure is given as a SMILES string. Some results are limits rather than exact numbers.

On to `Cc1ccc(-c2ncc3cc(N)ccc3n2)nc1-c1ccccc1` [11/2], for which the pest or weed control at 200 ppm in the assay with Plasmopara viticola is at least 80%. `c1cc(Oc2ccc3ccccc3c2)nc(-c2ncc3ccccc3n2)c1` [4/10]: the pest or weed control at 200 ppm in the assay with Alternaria solani and with Plasmopara viticola was at least 80% in each case. For `Cc1ccc(F)c(-c2cccc(-c3ncc4ccccc4n3)n2)c1` [2/79], in the assay with Plasmopara viticola, the pest or weed control at 200 ppm was at least 80%. On to `COc1ccc(C)cc1-c1cccc(-c2ncc3ccccc3n2)n1` [2/38], for which the pest or weed control at 200 ppm (in the assay with Alternaria solani; in assay [1]) was at least 80% each time. As for `CCOc1ccccc1-c1cccc(-c2ncc3ccccc3n2)n1` [2/30], the pest or weed control at 200 ppm in the assay with Alternaria solani and in the assay on Plasmopara viticola was at least 80% throughout. With `COc1ccc(-c2cccc(-c3ncc4ccccc4n3)n2)c(C)c1` [2/66], the pest or weed control at 200 ppm (in the assay on Alternaria solani; in assay [1]) was at least 80% each time. With `Cc1ccc(-c2cccc(-c3ncc4ccccc4n3)n2)c(C)c1` [2/94], the pest or weed control at 200 ppm in the assay on Alternaria solani and in the assay on Plasmopara viticola was at least 80% in each case.

With `COc1cccc(F)c1-c1cccc(-c2ncc3ccccc3n2)n1` [2/70], the pest or weed control at 200 ppm with Alternaria solani and with Plasmopara viticola was at least 80% throughout. In the case of `Cc1cc(F)ccc1-c1nc(-c2ncc3ccccc3n2)ccc1C` [3/17], in the assay on Alternaria solani, the pest or weed control at 200 ppm was at least 80%. `COc1ccccc1-c1cccc(-c2ncc3ccccc3n2)n1` [2/15]: in the assay on Alternaria solani, the pest or weed control at 200 ppm is at least 80%. Turning to `Cc1ccc(-c2ncc3ccccc3n2)nc1C` [10/3], the pest or weed control at 200 ppm with Plasmopara viticola was at least 80%.

With `Fc1ccc(Cc2cccc(-c3ncc4ccccc4n3)n2)c(Cl)c1` [6/20], the pest or weed control at 200 ppm in assay [1] was at least 80%.

`COc1ccc(-c2cccc(-c3ncc4ccccc4n3)n2)cc1F` [2/57]: in assay [1], the pest or weed control at 200 ppm was at least 80%.

In the case of `Cc1ccccc1-c1cccc(-c2ncc3ccccc3n2)n1` [2/4], in the assay with Alternaria solani, the pest or weed control at 200 ppm was at least 80%. For `Fc1cccc(F)c1Cc1cccc(-c2ncc3ccccc3n2)n1` [6/26], the pest or weed control at 200 ppm in assay [1] was at least 80%. Turning to `CC(=O)c1ccc(-c2nc(-c3ncc4ccccc4n3)ccc2C)cc1` [3/118], the pest or weed control at 200 ppm in assay [1] is at least 80%. As for `CCc1ccc(-c2nc(-c3ncc4ccccc4n3)ccc2C)cc1` [3/131], the pest or weed control at 200 ppm in assay [1] is at least 80%. Regarding `COc1ccc(-c2cccc(-c3ncc4ccccc4n3)n2)c(OC)c1` [2/33], the pest or weed control at 200 ppm with Alternaria solani was at least 80%.

Regarding `Clc1ccc(Cc2cccc(-c3ncc4ccccc4n3)n2)cc1Cl` [6/27], the pest or weed control at 200 ppm in assay [1] is at least 80%. On to `N#Cc1c(Cl)cccc1Cc1cccc(-c2ncc3ccccc3n2)n1` [6/33], for which the pest or weed control at 200 ppm in assay [1] is at least 80%. As for `c1ccc(Oc2cccc(-c3ncc4ccccc4n3)n2)cc1` [4/24], in assay [1], the pest or weed control at 200 ppm was at least 80%. Regarding `COC(=O)c1ccccc1-c1nc(-c2ncc3ccccc3n2)ccc1C` [3/128], the pest or weed control at 200 ppm in assay [1] was at least 80%. On to `Fc1cc(F)c(F)c(Cc2cccc(-c3ncc4ccccc4n3)n2)c1` [6/29], for which the pest or weed control at 200 ppm in assay [1] is at least 80%. On to `Cc1c(Cl)cccc1-c1cccc(-c2ncc3ccccc3n2)n1` [2/126], for which, in assay [1], the pest or weed control at 200 ppm is at least 80%. Still for that read-out and setting: with `COc1ccccc1Cc1nc(-c2ncc3ccccc3n2)ccc1C` [7/21] the figure was at least 80%; with `Cc1ccc(-c2ncc3ccccc3n2)nc1-c1ccc(Cl)c(F)c1Cl` [3/138], at least 80%.

`Cc1ccc(-c2ncc3ccccc3n2)nc1-c1ccccc1N` [3/102]: the pest or weed control at 200 ppm in assay [1] was at least 80%.

With `O=[N+]([O-])c1ccccc1-c1cccc(-c2ncc3ccccc3n2)n1` [2/112], the pest or weed control at 200 ppm in assay [1] is at least 80%. `COc1cc(-c2cccc(-c3ncc4ccccc4n3)n2)c(OC)cc1C` [2/121]: the pest or weed control at 200 ppm in assay [1] is at least 80%. With `CC(=O)c1cccc(-c2nc(-c3ncc4ccccc4n3)ccc2C)c1` [3/133], in assay [1], the pest or weed control at 200 ppm was at least 80%. Same read-out and setting: with `Cc1ccc(-c2cccc(-c3ncc4ccccc4n3)n2)c2ccccc12` [2/108] the figure was at least 80%.

On to `COc1cc(F)c(-c2cccc(-c3ncc4ccccc4n3)n2)c(F)c1` [2/131], for which the pest or weed control at 200 ppm in assay [1] is at least 80%.

For the origin of these results see patent publication US20120129875A1, “SUBSTITUTED QUINAZOLINES AS FUNGICIDES” (SYNGENTA CROP PROTECTION, LLC, priority 2009, published 2012).
